The text below walks through data of patent US20240226066A1, “CARDIOPROTECTION BY AUTOPHAGY INDUCTION AND METABOLIC REPROGRAMMING” (UNIVERSITE PARIS-SACLAY, priority 2021, published 2024).

Each structure is given as a SMILES string. Where two headings read alike, the source gives them in different places.

Series [1] has as its system RNVCs. Briefly: Mitochondrial network and cell volume by confocal microscopy (Mitotracker, calcein-AM, IMARIS). In kind it is cell-based, rat. To be noted: 1 and 10 μM, 6 h. As to the method: FIG. 6. Effects on mitochondrial dynamics by fluorescence microscopy The RNVCs were treated with 1 μM hits (FIG. 6A) and 10 μM hits (FIG. 6B) for 6 h and the mitochondrial network was stained with 200 nM of Mitotracker. The mitochondrial network and individual mitochondria were then analyzed using a Leica confocal microscope and IMARIS software. Data are presented as mean±SEM with single-factor ANOVA, and multiple Sidak comparisons. *, p<0.05, **, p<0.01, ***, p<0.001 with respect to DMSO.
FIG. 11: following the treatment of the RNVCs with the compounds as indicated, the cell volume was stained with 4 μM of calcein-AM. The cell volume was then analyzed using the IMARIS software.
Confocal microscopy. On day 0, 4×10^5 neonatal cardiomyocytes were plated overnight on laminin-coated 35 mm culture dishes (10 μg/ml). On day 1, the cells were treated with various compounds at 1 or 10 μM for 6 hours. The cells were incubated with Mitotracker Red 580 at 200 nM for 20 minutes at 37° C., then 4 μM of calcein (Calcein AM, Life Technologies, St Aubin, France) for 10 minutes at 37° C. The images were acquired with a Leica confocal microscope (SP5) (Mannheim, Germany). The mitochondrial network and the 3D model of cell volume were reconstructed using the IMARIS software (Bitplane Company, Zurich, Switzerland); therefore the cell volume, mitochondrial number and volume were analyzed.
Due to the importance of mitochondria and reactive oxygen species (ROS) levels in the fate of cardiomyocyte cells, the hypothesis that the compounds could impact the mitochondrial network was explored. Following treatment of the RNVCs with the compounds tested, the mitochondrial network was stained with 200 nM of Mitotracker and the cell volume with 4 μM of calcein-AM. Thus, the mitochondrial network and the individual mitochondria were then analyzed using the IMARIS software.

Series [2] relates to primary rat neonatal ventricular cardiomyocytes (RNVCs). Briefly: Protection of RNVCs against camptothecin-induced apoptosis (LDH release, propidium iodide). In kind it is cell-based. The conditions noted are these: camptothecin 10 μM. As to the method: Neonatal rat cardiomyocytes were isolated as described previously (Wang et al., Cell Death Dis, 2016, 7:e2198).
(§1) A colorimetric assay was used to measure lactate dehydrogenase (LDH), a cytosolic enzyme which is released during permeabilization of the plasma membrane (Promega G1780). The assay was performed using cell culture supernatants obtained from H9C2 or RNVC (rat neonatal ventricular myocyte) cells and lysis buffer (LB) was used as a positive control for total cell lysis. The LDH release was measured by absorbance reading at 490 nm (Infinite spectrofluorimeter, Tecan).
Propidium iodide, a non-permeable fluorescent DNA marker, was used to measure membrane integrity. Propidium iodide at 10 μM was added to the culture medium and a fluorescence reading was performed (for […]: 530 nm; em: 620 nm), the LB was used as a positive control for total cell lysis.
(§2) The effect of the compounds was then evaluated on primary rat neonatal ventricular cardiomyocytes (RNVCs) using the LDH test and propidium iodide staining. […] The absence of proliferative effects of the compounds was also evaluated on the A549 lung cancer cell line for 48 h (FIG. 2C).

Series [3] has as its system RNVCs. Kind of series: Mitochondrial ROS production with MitoSOX fluorescent probe. In kind it is cell-based, rat. To be noted: 1 μM, 6 h. As to the method: FIG. 12: The RNVCs were treated with 0.1% DMSO, 3 μM rapamycin, 1 μM digitoxigenin, 1 μM digoxin, 1 μM minaprin, 1 μM VP331, 1 μM LOPA87, 10 μM SG6163F for 6 h, then the ROS production was stained with the MitoSOX fluorescent probe.
The RNVCs were treated with 0.01% DMSO, 3 μM rapamycin, […], 1 μM digoxin, 1 μM minaprine, 1 μM VP331, 1 μM LOPA87, 10 μM SG6163F in a serum-free cell culture medium for 6 hours. The contents (50 μg) of a MitoSOX™ mitochondrial superoxide indicator vial (ThermoFisher, M36008) were dissolved in 13 μl dimethyl sulfoxide (DMSO) to prepare a 5 mM MitoSOX™ reagent stock solution. Next, the 5 mM MitoSOX™ reagent stock solution in PBS was diluted to prepare a 5 μM working solution of MitoSOX™ reagent. After treatment, the cells were rinsed twice with hot PBS and then incubated with a MitoSOX reagent working solution for 10 minutes at 37° C. The cells were gently rinsed three times with hot PBS. Red fluorescence was detected with a Leica confocal microscope. Nuclear fluorescence was suppressed and mitochondrial fluorescence intensity was measured using ImageJ software.
ROSs are produced or accumulated as a by-product of mitochondrial activity metabolism. Thus, the ROSs may be a consequence of mitochondrial function or may reflect a defect in the mitochondrial antioxidant system.

For a further series, the target named is T1, hERG potassium channel (Homo sapiens, UniProt Q12809).
T1 construct: Eurofins
Briefly: hERG channel binding assay ([3H]dofetilide displacement). To be noted: for inhibition at 10 µM: human, probe [3H]dofetilide. The method, then:
The evaluation of the binding of the compounds to the human hERG potassium channel was carried out as described previously (Eurofins).
Since the blocking of the human potassium channel hERG channel may be responsible for cardiac fibrillation leading to cardiac arrest and death of the patient, the binding of the 3 molecules SG6163F, VP331 and LOPA87 to this receptor was evaluated.

The test system of series [4] is A549 lung cancer cell line. Briefly: Influence of hits on growth of A549 cancer cells (total LDH after lysis). It is filed as cell-based. To be noted: 48 h. As to the method:
The cells were cultured for 6 h in the presence or absence of the hits, and then for 42 h. Finally, the cells were lysed with lysis buffer and the amount of LDH was measured to evaluate the total cell growth.
as §1, §2

For series [5], the system named is AMP-activated protein kinase (AMPK). Kind of series: Western blot of AMPK phosphorylation in RNVCs. In kind it is cell-based, rat. As to the method:
FIG. 8D: AMPK alpha2 and phospho-AMPK protein levels in RNVCs. Data are presented as mean±SEM with single-factor ANOVA, and multiple Sidak comparisons. *, p<0.05, **, p<0.01, ***, p<0.001 with respect to DMSO.
The H9C2 cells and RNVCs were detached in LB containing: 50 mM Tris, 150 mM NaCl, 1 mM EDTA, 0.5% deoxycholate, 1% Triton X 100, 0.1% SDS (pH 8.0). The cells were collected and placed on ice for 30 minutes. The cells were then centrifuged at 2000 g for 20 minutes at for 4° C. The supernatant was transferred to a new tube and stored on ice. The protein concentration was determined by BCA assay. The protein samples were diluted with sample buffer (2× Laemmli, Sigma), mixed, and heated for 5 minutes at 95° C. The samples were then loaded into a precast gel with a gradient of 4 to 20% and migrated for 15 minutes at 300 V. After migration, the membrane and the gel were placed on the base of a Trans Blot Turbo cassette (Bio Rad) and the proteins were transferred for 3 minutes at 2.5 V. After transfer, the membrane was blocked with 5% milk in PBS-Tween and incubated with a primary antibody diluted in PBS-Tween containing 5% w/v milk at 4° C. with gentle stirring, overnight. […] The images were recorded with a gel imaging system (Bio Rad). […]
Next, the energy metabolism was analyzed in real time using the Seahorse technology in H9C2 cells.

T1 sequence (Q12809 whole entry): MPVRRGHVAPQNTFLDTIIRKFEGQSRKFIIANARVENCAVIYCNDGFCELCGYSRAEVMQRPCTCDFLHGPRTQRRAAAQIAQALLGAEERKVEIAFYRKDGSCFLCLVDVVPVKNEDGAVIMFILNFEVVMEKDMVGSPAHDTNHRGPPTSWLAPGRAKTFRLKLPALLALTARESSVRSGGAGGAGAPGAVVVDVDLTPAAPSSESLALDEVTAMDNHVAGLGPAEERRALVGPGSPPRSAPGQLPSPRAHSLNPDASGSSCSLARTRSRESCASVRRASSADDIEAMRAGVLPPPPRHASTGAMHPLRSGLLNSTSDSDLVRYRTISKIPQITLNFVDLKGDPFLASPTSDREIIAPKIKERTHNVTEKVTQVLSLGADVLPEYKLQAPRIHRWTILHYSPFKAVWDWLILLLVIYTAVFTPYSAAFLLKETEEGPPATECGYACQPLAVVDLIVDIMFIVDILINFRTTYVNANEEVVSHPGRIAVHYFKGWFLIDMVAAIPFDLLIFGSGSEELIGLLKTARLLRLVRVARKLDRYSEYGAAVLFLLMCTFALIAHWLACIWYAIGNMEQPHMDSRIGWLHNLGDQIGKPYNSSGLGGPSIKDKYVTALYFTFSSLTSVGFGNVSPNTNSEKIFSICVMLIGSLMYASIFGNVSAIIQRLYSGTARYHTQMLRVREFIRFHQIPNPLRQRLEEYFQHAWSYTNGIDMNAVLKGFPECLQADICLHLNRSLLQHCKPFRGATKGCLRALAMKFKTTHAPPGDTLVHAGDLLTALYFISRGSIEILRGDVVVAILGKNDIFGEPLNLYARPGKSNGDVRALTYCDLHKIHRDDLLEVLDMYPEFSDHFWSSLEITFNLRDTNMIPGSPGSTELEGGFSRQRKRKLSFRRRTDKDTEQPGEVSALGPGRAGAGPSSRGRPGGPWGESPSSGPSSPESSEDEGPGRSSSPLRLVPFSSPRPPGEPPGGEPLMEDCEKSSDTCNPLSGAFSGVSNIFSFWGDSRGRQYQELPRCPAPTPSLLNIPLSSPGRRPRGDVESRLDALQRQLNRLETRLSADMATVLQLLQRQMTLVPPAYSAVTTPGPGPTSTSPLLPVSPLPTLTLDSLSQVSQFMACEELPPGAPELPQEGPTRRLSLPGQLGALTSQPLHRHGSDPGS

As to `CN(C)c1ccc(-c2cc(=O)[nH]c(-c3ccccc3)n2)cc1` [LOPA87], the “effect on the mitochondrial network” value with RNVCs [1] was “no effect”. The number of mitochondria result in the series on RNVCs [1] is recorded as “no effect”. In series [2], the “inhibition of apoptosis of RNVCs” value is “did not protect”. Besides, the “local level of mitochondrial superoxide anion” value with RNVCs [3] is “induced an elevation”. The inhibition at 10 µM was found to be 14.6% on hERG potassium channel (inhibition of tritiated dofetilide binding, only values >50% considered effective, read-out: % inhibit 1st assay); 5.3% on hERG potassium channel (inhibition of tritiated dofetilide binding, only values >50% considered effective, read-out: % inhibit 2nd assay); 10% at hERG potassium channel (mean of two independent measurements, read-out: % inhibit Mean). For the same compound, the “binding to the hERG channel” value on hERG potassium channel (inhibition of specific binding of [3H]dofetilide in vitro) was “negligible”. For the same compound, the “effect on A549 cell growth” value in series [4] is reported as “no proliferative effect”. For the same compound, the “AMPK phosphorylation compared with the DMSO control” value in series [5] is on record as 1.5 fold.
